Source: US20240174723A1, “STAPLED ANTIMICROBIAL PEPTIDES (STAMPS) AND USES THEREOF” (Lytica Therapeutics, Inc., priority 2021, published 2024)
≈ marks a conversion by molar mass, not a printed value. Positions of bridges follow the written chain, without caps; N, C: chain ends. Non-standard residues stand in square brackets, D forms with d. Residues, ends and D or L forms follow the SMILES beside them. S5 = C=CCCC[C@](C)(N)C(=O)O; Pra = C#CC[C@H](N)C(=O)O; Dap = NC[C@H](N)C(=O)O

Columns and labels:
E. coli = assay type: cell-based, Escherichia coli
Summary of the method: (§1)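 Visible-growth endpoint after 20-24 h at 37 °C defines the MIC. Test organisms, pre-grown to log phase, were exposed at 5×10^5 CFU/ml to peptide dilution series in standard or cation-adjusted Mueller-Hinton broth.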

A. baumannii = assay type: cell-based, Acinetobacter baumannii
Summary of the method: as §1

P. aeruginosa = assay type: cell-based, Pseudomonas aeruginosa
Summary of the method: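 MIC taken as lowest peptide concentration with no visible growth after 20-24 h at 37 °C. Peptide serial dilutions from water stocks met P. aeruginosa inoculum (5×10^5 CFU/ml final) in MHB or MHB II, per a CLSI-adapted microbroth protocol.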

K. pneumoniae = assay type: cell-based, Klebsiella pneumoniae
Summary of the method: as §1

S. aureus = assay type: cell-based, Staphylococcus aureus
Summary of the method: as §1

in vitro = assay type: cell-based; conditions: human, Inhibitory Concentration at 50% Cytotoxicity (IC50) Human Liver Cells (HepG2)
Summary of the method: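 Cytotoxicity read by CellTiter-Glo luminescence after 48 h at 37 °C exposure to serially diluted StAMPs or vehicle. HepG2 cells were grown in EMEM plus 10% FBS and given 4 h to attach before dosing; peptides came from a 5 mg/mL aqueous stock.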

Structure (SMILES) | Minimum Inhibitory Concentration (MIC) E. coli (E. coli) | Minimum Inhibitory Concentration (MIC) A. baumannii (A. baumannii) | Minimum Inhibitory Concentration (MIC) P. aeruginosa (P. aeruginosa) | Minimum Inhibitory Concentration (MIC) K. pneumoniae (K. pneumoniae) | Minimum Inhibitory Concentration (MIC) S. aureus (S. aureus) | IC50 at 48 hours (in vitro)
CC(C)[C@@H]1NC(=O)[C@@](C)(NC(=O)[C@H](C)NC(=O)[C@H](CCCCN)NC(=O)CNC(=O)[C@H](Cc2ccccc2)NC(=O)[C@H](CCCCN)NC(=O)[C@H](CCCCN)NC(=O)[C@H](CCCCN)NC(=O)[C@H](CCCCN)NC(=O)[C@H](CN)NC(=O)[C@]2(C)CCCC=CCCC[C@](C)(NC(=O)CN)C(=O)NCC(=O)N[C@@H](CCCCN)C(=O)N[C@@H](Cc3ccccc3)C(=O)N2)CCCC=CCCC[C@@](C)(C(=O)N[C@@H](C)C(=O)N[C@@H](CCCCN)C(=O)N[C@@H](CCCCN)C(N)=O)NC(=O)[C@H](CCC(=O)O)NC(=O)[C@H](CO)NC1=O [compound 88] (H-G[S5]GKF[S5][Dap]KKKKFGKA[S5]VSE[S5]AKK-NH2; staple 2-6, 16-20) | 1 µg/mL | 1 µg/mL | 1 µg/mL | 32 µg/mL | >64 µg/mL | 168 µg/mL (≈ 65.8 µM)
CC(C)[C@@H]1NC(=O)[C@@](C)(NC(=O)[C@H](C)NC(=O)[C@H](CCCCN)NC(=O)CNC(=O)[C@H](Cc2ccccc2)NC(=O)[C@H](CCCCN)NC(=O)[C@H](CCCCN)NC(=O)[C@H](CCCCN)NC(=O)[C@H](CCCCN)NC(=O)[C@H](CN)NC(=O)[C@]2(C)CCCC=CCCC[C@](C)(NC(=O)CN)C(=O)NCC(=O)N[C@@H](CCCCN)C(=O)N[C@@H](Cc3ccccc3)C(=O)N2)CCCC=CCCC[C@@](C)(C(=O)N[C@@H](CO)C(=O)N[C@@H](CCCCN)C(=O)N[C@@H](CCCCN)C(N)=O)NC(=O)[C@H](CCC(=O)O)NC(=O)CNC1=O [compound 89] (H-G[S5]GKF[S5][Dap]KKKKFGKA[S5]VGE[S5]SKK-NH2; staple 2-6, 16-20) | 2 µg/mL | 1 µg/mL | 1 µg/mL | 32 µg/mL | 64 µg/mL | 199 µg/mL (≈ 78.4 µM)
CC(C)[C@@H]1NC(=O)[C@@](C)(NC(=O)[C@H](C)NC(=O)[C@H](CCCCN)NC(=O)CNC(=O)[C@H](Cc2ccccc2)NC(=O)[C@H](CCCCN)NC(=O)[C@H](CCCCN)NC(=O)[C@H](CCCCN)NC(=O)[C@H](CO)NC(=O)[C@H](CCCCN)NC(=O)[C@]2(C)CCCC=CCCC[C@](C)(NC(=O)CN)C(=O)NCC(=O)N[C@@H](CCCCN)C(=O)N[C@@H](Cc3ccccc3)C(=O)N2)CCCC=CCCC[C@@](C)(C(=O)N[C@@H](C)C(=O)N[C@@H](CCCCN)C(=O)N[C@@H](CCCCN)C(=O)NCC(=O)NCC(=O)N[C@@H](CCC(=O)O)C(N)=O)NC(=O)[C@H](CCC(=O)O)NC(=O)CNC1=O [compound 90] (H-G[S5]GKF[S5]KSKKKFGKA[S5]VGE[S5]AKKGGE-NH2; staple 2-6, 16-20) | 4 µg/mL | 2 µg/mL | 2 µg/mL | 32 µg/mL | 64 µg/mL | > 200 µg/mL
CC(C)[C@@H]1NC(=O)[C@@](C)(NC(=O)[C@H](C)NC(=O)[C@H](CCCCN)NC(=O)[C@H](CO)NC(=O)[C@H](Cc2ccccc2)NC(=O)[C@H](CCCCN)NC(=O)[C@H](CCCCN)NC(=O)[C@H](CCCCN)NC(=O)[C@H](CCCCN)NC(=O)[C@H](CCCCN)NC(=O)[C@]2(C)CCCC=CCCC[C@](C)(NC(=O)CN)C(=O)NCC(=O)N[C@@H](CCCCN)C(=O)N[C@@H](Cc3ccccc3)C(=O)N2)CCCC=CCCC[C@@](C)(C(=O)N[C@@H](C)C(=O)N[C@@H](CCCCN)C(=O)N[C@@H](CCCCN)C(=O)NCC(=O)NCC(=O)N[C@@H](CCC(=O)O)C(N)=O)NC(=O)[C@H](CCC(=O)O)NC(=O)CNC1=O [compound 91] (H-G[S5]GKF[S5]KKKKKFSKA[S5]VGE[S5]AKKGGE-NH2; staple 2-6, 16-20) | 64 µg/mL | 4 µg/mL | 64 µg/mL | >64 µg/mL | >64 µg/mL | > 200 µg/mL
CC(C)[C@@H]1NC(=O)[C@@](C)(NC(=O)[C@H](CO)NC(=O)[C@H](CCCCN)NC(=O)CNC(=O)[C@H](Cc2ccccc2)NC(=O)[C@H](CCCCN)NC(=O)[C@H](CCCCN)NC(=O)[C@H](CCCCN)NC(=O)[C@H](CCCCN)NC(=O)[C@H](CCCCN)NC(=O)[C@]2(C)CCCC=CCCC[C@](C)(NC(=O)CN)C(=O)NCC(=O)N[C@@H](CCCCN)C(=O)N[C@@H](Cc3ccccc3)C(=O)N2)CCCC=CCCC[C@@](C)(C(=O)N[C@@H](C)C(=O)N[C@@H](CCCCN)C(=O)N[C@@H](CCCCN)C(=O)NCC(=O)NCC(=O)N[C@@H](CCC(=O)O)C(N)=O)NC(=O)[C@H](CCC(=O)O)NC(=O)CNC1=O [compound 92] (H-G[S5]GKF[S5]KKKKKFGKS[S5]VGE[S5]AKKGGE-NH2; staple 2-6, 16-20) | 16 µg/mL | 4 µg/mL | 16 µg/mL | >64 µg/mL | >64 µg/mL | > 200 µg/mL
CC(C)[C@@H]1NC(=O)[C@@](C)(NC(=O)[C@H](C)NC(=O)[C@H](CCCCN)NC(=O)CNC(=O)[C@H](Cc2ccccc2)NC(=O)[C@H](CCCCN)NC(=O)[C@H](CCCCN)NC(=O)[C@H](CCCCN)NC(=O)[C@H](CCCCN)NC(=O)[C@H](CCCCN)NC(=O)[C@]2(C)CCCC=CCCC[C@](C)(NC(=O)CN)C(=O)NCC(=O)N[C@@H](CCCCN)C(=O)N[C@@H](Cc3ccccc3)C(=O)N2)CCCC=CCCC[C@@](C)(C(=O)N[C@@H](C)C(=O)N[C@@H](CCCCN)C(=O)N[C@@H](CCCCN)C(=O)NCC(=O)NCC(=O)N[C@@H](CCC(=O)O)C(N)=O)NC(=O)[C@H](CCC(=O)O)NC(=O)[C@H](CO)NC1=O [compound 93] (H-G[S5]GKF[S5]KKKKKFGKA[S5]VSE[S5]AKKGGE-NH2; staple 2-6, 16-20) | 2 µg/mL | 1 µg/mL | 1 µg/mL | 32 µg/mL | >64 µg/mL | > 200 µg/mL
CC(C)[C@@H]1NC(=O)[C@@](C)(NC(=O)[C@H](C)NC(=O)[C@H](CCCCN)NC(=O)CNC(=O)[C@H](Cc2ccccc2)NC(=O)[C@H](CCCCN)NC(=O)[C@H](CCCCN)NC(=O)[C@H](CCCCN)NC(=O)[C@H](CCCCN)NC(=O)[C@H](CCCCN)NC(=O)[C@]2(C)CCCC=CCCC[C@](C)(NC(=O)CN)C(=O)NCC(=O)N[C@@H](CCCCN)C(=O)N[C@@H](Cc3ccccc3)C(=O)N2)CCCC=CCCC[C@@](C)(C(=O)N[C@@H](CO)C(=O)N[C@@H](CCCCN)C(=O)N[C@@H](CCCCN)C(=O)NCC(=O)NCC(=O)N[C@@H](CCC(=O)O)C(N)=O)NC(=O)[C@H](CCC(=O)O)NC(=O)CNC1=O [compound 94] (H-G[S5]GKF[S5]KKKKKFGKA[S5]VGE[S5]SKKGGE-NH2; staple 2-6, 16-20) | 8 µg/mL | 4 µg/mL | 2 µg/mL | >64 µg/mL | 64 µg/mL | > 200 µg/mL
C#CC[C@H](NC(=O)[C@H](CCC(=O)O)NC(=O)CNC(=O)CNC(=O)[C@H](CCCCN)NC(=O)[C@H](CCCCN)NC(=O)[C@H](C)NC(=O)[C@]1(C)CCCC=CCCC[C@](C)(NC(=O)[C@H](C)NC(=O)[C@H](CCCCN)NC(=O)CNC(=O)[C@H](Cc2ccccc2)NC(=O)[C@H](CCCCN)NC(=O)[C@H](CCCCN)NC(=O)[C@H](CCCCN)NC(=O)[C@H](CCCCN)NC(=O)[C@H](CCCCN)NC(=O)[C@]2(C)CCCC=CCCC[C@](C)(NC(=O)CN)C(=O)NCC(=O)N[C@@H](CCCCN)C(=O)N[C@@H](Cc3ccccc3)C(=O)N2)C(=O)N[C@@H](C(C)C)C(=O)NCC(=O)N[C@@H](CCC(=O)O)C(=O)N1)C(N)=O [compound 95] (H-G[S5]GKF[S5]KKKKKFGKA[S5]VGE[S5]AKKGGE[Pra]-NH2; staple 2-6, 16-20) | 4 µg/mL | 2 µg/mL | 4 µg/mL | 64 µg/mL | >64 µg/mL | > 200 µg/mL
